From patent publication US20070128217A1 (priority 2003, published 2007)

Key:
[1] = tested on: antibodies in sera from SARS patients (sera 1a, 1b, 2, 6, 37, 62, London, SARS-yellow, SARS-green); assay type: binding, human; design: Binding of serum 6 to linear peptides of protein X1 of SARS-CoV Urbani / Binding of serum 37 to linear peptides of protein X1 of SARS-CoV Urbani / Binding of serum 6 to looped/cyclic peptide (PEPSCAN-ELISA) / Binding of serum 37 to looped/cyclic peptide (PEPSCAN-ELISA) / Binding of serum 37 to looped/cyclic peptides of protein X1 of SARS-CoV Urbani / Binding of serum 6 to linear peptides of protein X2 / Binding of serum 37 to linear peptides of protein X2 / Binding of serum 37 to looped/cyclic peptides of protein X2 of SARS-CoV Urbani / Binding of serum 6 to linear peptides of protein M of SARS-CoV Urbani / Binding of serum 37 to linear peptides of protein M of SARS-CoV Urbani / Binding of serum 6 to looped/cyclic peptides of protein M of SARS-CoV Urbani / Binding of serum 37 to looped/cyclic peptides of protein M of SARS-CoV Urbani / Binding of serum 6 to linear peptides of protein X3 of SARS-CoV Urbani / Binding of serum 37 to linear peptides of protein X3 of SARS-CoV Urbani / Binding of serum 37 to looped/cyclic peptides of protein X3 of SARS-CoV Urbani / Binding of serum 6 to linear peptides of protein X4 of SARS-CoV Urbani / Binding of serum 37 to linear peptides of protein X4 of SARS-CoV Urbani / Binding of serum 37 to looped/cyclic peptides of protein X4 of SARS-CoV Urbani / Binding of serum 6 to linear peptides of protein X5 of SARS-CoV Urbani / Binding of serum 37 to linear peptides of protein X5 of SARS-CoV Urbani / Binding of serum 37 to looped/cyclic peptides of protein X5 of SARS-CoV Urbani / Binding of serum 6 to linear peptides of protein N of SARS-CoV Urbani / Binding of serum 37 to linear peptides of protein N of SARS-CoV Urbani / Binding of serum 6 to linear peptide (PEPSCAN-ELISA) / Binding of serum 1a to looped/cyclic peptides of protein N of SARS-CoV Urbani / Binding of serum 1b to looped/cyclic peptides of protein N of SARS-CoV Urbani / Binding of serum 2 to looped/cyclic peptides of protein N of SARS-CoV Urbani / Binding of serum 6 to looped/cyclic peptides of protein N of SARS-CoV Urbani / Binding of serum 37 to looped/cyclic peptides of protein N of SARS-CoV Urbani / Binding of serum 62 to looped/cyclic peptides of protein N of SARS-CoV Urbani / Binding of serum London to looped/cyclic peptides of protein N of SARS-CoV Urbani / Binding of serum SARS-green to looped/cyclic peptides of protein N of SARS-CoV Urbani: unit not given here
[2] = tested on: rabbit serum obtained by immunizing a rabbit with the SARS-CoV strain Frankfurt 1; assay type: binding; design: Binding of a rabbit serum to linear peptides / Binding of a rabbit serum to looped peptides / Rabbit serum linear peptides / Rabbit serum looped peptides / Binding of a rabbit serum to linear peptides of protein N of SARS-CoV Urbani (Rabbit serum linear peptides) / Binding of a rabbit serum to looped/cyclic peptides of protein N of SARS-CoV Urbani (Rabbit serum looped peptides): unit not given here
[3] = tested on: control sera (pooled serum of ten healthy LUMC hospital workers; commercial negative donor pooled serum from the Dutch bloodbank); assay type: binding, human; design: Binding of Control serum LUMC to linear peptides / Binding of Control serum Blood-bank to linear peptides / Binding of Control serum LUMC to looped peptides / Binding of Control Serum Blood-Bank to Looped peptides / Binding of Control serum LUMC to linear peptides of the protein M of SARS-CoV Urbani / Binding of Control serum Blood-bank to linear peptides of the protein M of SARS-CoV Urbani / Binding of Control serum LUMC to looped peptides of the protein M of SARS-CoV Urbani / Binding of Control Serum Blood-Bank to Looped peptides of the protein M of SARS-CoV Urbani: unit not given here
[4] = tested on: recombinant human anti-SARS-CoV antibody 03-018; assay type: binding; design: Binding of antibody 03-018 to linear peptides of the N protein of SARS-CoV Urbani / Binding of antibody 03-018 to looped/cyclic peptides of the N protein of SARS-CoV Urbani: unit not given here

KGQQQQGQTVTKKSA was tested, and the “Binding of serum 1a to linear peptide (PEPSCAN-ELISA)” value [1] was 0.3, the “Binding of serum 1a to looped/cyclic peptides of protein N of SARS-CoV Urbani” value [1] was 0.2 and the “Binding of serum 1b to linear peptide (PEPSCAN-ELISA)” value [1] was 0.1. The “Binding of serum 1b to looped/cyclic peptides of protein N of SARS-CoV Urbani” value [1] was 0.1, the “Binding of serum 2 to linear peptide (PEPSCAN-ELISA)” value [1] was 0.2 and the “Binding of serum 2 to looped/cyclic peptides of protein N of SARS-CoV Urbani” value [1] was 0.2. The “Binding of serum 6 to linear peptide (PEPSCAN-ELISA)” value [1] was 0.3, the “Binding of serum 6 to looped/cyclic peptides of protein N of SARS-CoV Urbani” value [1] was 0.1 and the “Binding of serum 37 to linear peptide (PEPSCAN-ELISA)” value [1] was 0.7. The “Binding of serum 37 to looped/cyclic peptides of protein N of SARS-CoV Urbani” value [1] was 0.4, the “Binding of serum 62 to linear peptide (PEPSCAN-ELISA)” value [1] was 0.8 and the “Binding of serum 62 to looped/cyclic peptides of protein N of SARS-CoV Urbani” value [1] was 0.3. For the same sequence, the “Binding of serum London to linear peptide (PEPSCAN-ELISA)” value [1] was 0.6, the “Binding of serum London to looped/cyclic peptides of protein N of SARS-CoV Urbani” value [1] was 0.3 and the “Binding of serum SARS-green to linear peptide (PEPSCAN-ELISA)” value [1] was 0.4. For the same sequence, the “Binding of serum SARS-green to looped/cyclic peptides of protein N of SARS-CoV Urbani” value [1] was 0.0, the “Binding of serum SARS-yellow to linear peptide (PEPSCAN-ELISA)” value [1] was 0.6 and the “Binding of serum SARS-yellow to looped/cyclic peptides of protein N of SARS-CoV Urbani” value [1] was 0.1. The “Binding of a rabbit serum to linear peptides of protein N of SARS-CoV Urbani (Rabbit serum linear peptides)” value [2] was 0.2, the “Binding of a rabbit serum to looped/cyclic peptides of protein N of SARS-CoV Urbani (Rabbit serum looped peptides)” value [2] was 0.0 and the “Binding of Control Serum Blood-Bank to Looped peptides” value [3] was 0.4. The “Binding of Control serum Blood-bank to linear peptides” value [3] was 1.0, the “Binding of Control serum LUMC to linear peptides” value [3] was 0.9 and the “Binding of Control serum LUMC to looped peptides” value [3] was 0.4. For the same sequence, the “Binding of antibody 03-018 to linear peptides of the N protein of SARS-CoV Urbani” value [4] was 0.1 and the “Binding of antibody 03-018 to looped/cyclic peptides of the N protein of SARS-CoV Urbani” value [4] was 0.2.

With ALTQHGKEELRFPRG the “Binding of serum 1a to linear peptides of protein N of SARS-CoV Urbani” value [1] was 0.3, the “Binding of serum 1a to looped/cyclic peptides of protein N of SARS-CoV Urbani” value [1] was 0.2 and the “Binding of serum 1b to linear peptides of protein N of SARS-CoV Urbani” value [1] was 0.2. The “Binding of serum 1b to looped/cyclic peptides of protein N of SARS-CoV Urbani” value [1] was 0.1, the “Binding of serum 2 to linear peptides of protein N of SARS-CoV Urbani” value [1] was 0.3 and the “Binding of serum 2 to looped/cyclic peptides of protein N of SARS-CoV Urbani” value [1] was 0.2. For the same sequence, the “Binding of serum 6 to linear peptides of protein N of SARS-CoV Urbani” value [1] was 0.2, the “Binding of serum 6 to looped/cyclic peptides of protein N of SARS-CoV Urbani” value [1] was 0.1 and the “Binding of serum 37 to linear peptides of protein N of SARS-CoV Urbani” value [1] was 0.9. For the same sequence, the “Binding of serum 37 to looped/cyclic peptides of protein N of SARS-CoV Urbani” value [1] was 0.5, the “Binding of serum 62 to linear peptides of protein N of SARS-CoV Urbani” value [1] was 0.8 and the “Binding of serum 62 to looped/cyclic peptides of protein N of SARS-CoV Urbani” value [1] was 0.2. For the same sequence, the “Binding of serum London to linear peptides of protein N of SARS-CoV Urbani” value [1] was 0.5, the “Binding of serum London to looped/cyclic peptides of protein N of SARS-CoV Urbani” value [1] was 0.3 and the “Binding of serum SARS-green to linear peptides of protein N of SARS-CoV Urbani” value [1] was 0.6. For the same sequence, the “Binding of serum SARS-green to looped/cyclic peptides of protein N of SARS-CoV Urbani” value [1] was 0.1, the “Binding of serum SARS-yellow to linear peptides of protein N of SARS-CoV Urbani” value [1] was 0.6 and the “Binding of serum SARS-yellow to looped/cyclic peptides of protein N of SARS-CoV Urbani” value [1] was 0.3. For the same sequence, the “Binding of a rabbit serum to linear peptides of protein N of SARS-CoV Urbani (Rabbit serum linear peptides)” value [2] was 0.2, the “Binding of a rabbit serum to looped/cyclic peptides of protein N of SARS-CoV Urbani (Rabbit serum looped peptides)” value [2] was 0.3 and the “Binding of Control Serum Blood-Bank to Looped peptides” value [3] was 0.4. The “Binding of Control serum Blood-bank to linear peptides” value [3] was 0.9, the “Binding of Control serum LUMC to linear peptides” value [3] was 0.7 and the “Binding of Control serum LUMC to looped peptides” value [3] was 0.4. The “Binding of antibody 03-018 to linear peptides of the N protein of SARS-CoV Urbani” value [4] was 0.2 and the “Binding of antibody 03-018 to looped/cyclic peptides of the N protein of SARS-CoV Urbani” value [4] was 0.2.
